Results reported in patent US12691070B2, “Cationic lipids and preparation method thereof” (RiboX Therapeutics HK Limited, priority 2023, dated 2026).

Legend:
Hep G2 cells [1] = assay: In vitro toxicity (CellTiter-Glo cell viability), Hep G2; assay type: cell-based; conditions: cirRNA (SEQ ID NO: 1) LNPs; Hep G2 cells;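 also: percent of untreated cells luminescence signal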
Experimental: (§1) RAW 264.7 and Hep G2 cells were transfected with 1 μg/mL RNA-LNPs. At 72 hours post transfection, cell viability was determined with the CellTiter-Glo® reagent kit, according to the kit protocol, measured by a luminometer.
(§2) The cell viability was calculated according to the following formula: […]

Hep G2 cells [2] = assay: In vitro expression of firefly-luciferase, Hep G2; assay type: cell-based; conditions: cirRNA (SEQ ID NO: 1) LNPs; firefly-luciferase luminescence; Hep G2 cells
Experimental: (§3) RAW 264.7 and Hep G2 cells were transfected with 100 ng/mL of RNA-LNPs encoding for firefly-luciferase. At 72 hours post transfection, the cells were washed and lysed. The luciferase expression was determined in the cell lysates with the luciferase assay reagent kit (Promega), according to the kit protocol, luciferase activity was measured by a luminometer.

BALB/C mice = assay: In vivo expression, whole-body luminescence (IVIS); conditions: cirRNA (SEQ ID NO: 1) LNPs, BALB/C mice
Experimental: 6-8 week old, female BALB/C mice were injected with 0.05 mg*kg-1 of RNA-LNPs encoding for firefly-luciferase by intravenous injection. At 6 hours post injection, animals were intraperitoneally injected with 15 mg/ml of Luciferin substrate and whole-body luminescence was determined by a bioluminescent in vivo imaging system (IVIS).

RAW 264.7 cells [3] = assay: In vitro toxicity (CellTiter-Glo cell viability), RAW 264.7; assay type: cell-based; conditions: cirRNA (SEQ ID NO: 1) LNPs; RAW 264.7 cells;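 also: percent of untreated cells luminescence signal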
Experimental: as §1, §2

RAW 264.7 cells [4] = assay: In vitro expression of firefly-luciferase, RAW 264.7; assay type: cell-based; conditions: cirRNA (SEQ ID NO: 1) LNPs; firefly-luciferase luminescence; RAW 264.7 cells
Experimental: as §3

[5] = LNP zeta potential (Zetasizer); assay type: physicochemical; conditions: LNP with cirRNA (SEQ ID NO: 1)
Experimental: (§4) Ionizable lipid, DSPC, Cholesterol and DMG-PEG 2000 were mixed at a molar ratio of 50:10:38.5:1.5 in absolute ethanol. Circular RNA and linear mRNA payloads were suspended in 25 mM Acetate Buffer (pH 4.5). To form LNPs, three volumes of luciferase encoding RNA, in the form of cirRNA (SEQ ID NO:1) and mRNA (SEQ ID NO:2) respectively, were mixed with one volume of lipids in ethanol solution by microfluidic mixing with the Nanoassemblr Ignite (Precision Nanosystems) at a flow rate of 12 ml/min. The molar ratio of ionizable lipid to ribonucleotide was 15 or 6. The final lipid concentration in solution ranged from 1.5 mM to 6 mM. After encapsulation, the particles were dialyzed twice against PBS.
(§5) The LNP size and polydispersity index (PDI), determined by dynamic light scattering (DLS), and zeta potential were measured by a Zetasizer machine (Malvern). RNA concentration and encapsulation efficacy were analyzed by the Quant-IT Ribogreen kit by calculating the percentage encapsulation at 100%−(RNA-LNPs/RNA-LNPs with Triton X-100).

[6] = LNP size and polydispersity index (PDI) by dynamic light scattering; assay type: physicochemical; conditions: LNP with cirRNA (SEQ ID NO: 1); for Size: in nm (unit assumed)
Experimental: as §4, §5

[7] = RNA encapsulation efficacy by Quant-IT Ribogreen kit; assay type: physicochemical; conditions: LNP with cirRNA (SEQ ID NO: 1)
Experimental: as §4, §5

Compound | In vitro Viability HepG2 (Hep G2 cells [1]) [%] | In vitro Expression HepG2 (Hep G2 cells [2]) | In vivo Expression (Whole Body) (BALB/C mice) | In vitro Viability RAW (RAW 264.7 cells [3]) [%] | In vitro Expression RAW (RAW 264.7 cells [4]) | Zeta (mV) [5] [mV] | PDI [6] | Size [6] | Encapsulation Efficiency % [7] [%]
CCCCC/C=C\C/C=C\CCCCCCCCN(CCCCCC(=O)OCC/C=C\CCCCC)CCOC(=O)NCc1ccncc1 [Lipid 99, (Z)-non-3-en-1-yl 6-(((9Z,12Z)-octadeca-9,12-dien-1-yl)(2-(((pyridin-4-ylmethyl)carbamoyl)oxy)ethyl)amino)hexanoate] | 78 | 1.13E+04 | 5.53E+07 | 137 | 1.01E+04 | – | – | – | –
CCCCCCOC(=O)CCCCCCCCCCN(CCCCCCCCCCC(=O)OCCCCCC)CCOC(=O)NCCN(C)C [Lipid 136, hexyl 10-(11-(hexyloxy)-11-oxoundecyl)-2-methyl-6-oxo-7-oxa-2,5,10-triazahenicosan-21-oate] | 20 | 2.15E+03 | 6.14E+03 | 8 | 1.93E+02 | 16.11 | 0.146 | 143.7 | 95
CCCCCCCCCCC(CCCCCCCC)COC(=O)CCCCCN(CCCCCC(=O)OCC(CCCCCCCC)CCCCCCCCCC)CCOC(=O)NCCCn1ccnc1 (stereo not shown) [Lipid 167] | 102 | 8.85E+04 | 9.22E+06 | 90 | 2.79E+04 | −3.412 | 0.0668 | 61.26 | 82
CCCCCCCCCCC(CCCCCCCC)COC(=O)CCCCCN(CCCCCC(=O)OCC(CCCCCCCC)CCCCCCCCCC)CCCOC(=O)NCCN1CCN(C)CC1 (stereo not shown) [Lipid 367] | 85 | 5.88E+05 | 1.74E+06 | 90 | 2.48E+04 | 0.7313 | 0.2544 | 131.6 | 91
CCCCC/C=C\C/C=C\CCCCCCCCN(CCCCCCCC/C=C\CCCCCCCC)CCOC(=O)NCCN1CCN(C)CC1 [Lipid 70, 2-(((Z)-octadec-9-en-1-yl)((9Z,12Z)-octadeca-9,12-dien-1-yl)amino)ethyl (2-(4-methylpiperazin-1-yl)ethyl)carbamate] | 120 | 9.79E+04 | 2.08E+05 | 104 | 2.29E+03 | 11.22 | 0.115 | 83.09 | 97
CCCCCCCCC(CCCCCCCC)OC(=O)CCCCCCCN(CCCCCCCCOC(=O)C(CCCCCC)CCCCCCCC)CCCNCCN(C)C (stereo not shown) [Lipid 363] | 112 | 3.17E+05 | 2.22E+06 | 65 | 9.15E+03 | 5.356 | 0.2547 | 130.7 | 92
CCCCC/C=C\CCOC(=O)CCCCCN(CCCCCCCCOC(=O)C(CCCCCC)CCCCCCCC)CCOC(=O)NCCN1CCN(C)CC1 (stereo not shown) [Lipid 187] | 93 | 3.27E+05 | 2.29E+06 | 0 | 7.47E+04 | 8.983 | 0.277 | 65.71 | 92
CCCCC/C=C\CCOC(=O)CCCCCN(CCCCCCCCOC(=O)C(CCCCCC)CCCCCCCC)CCOC(=O)NCCN(C)C (stereo not shown) [Lipid 184] | 91 | 9.87E+04 | 5.28E+07 | 88 | 1.93E+03 | – | – | – | –
CCCCC/C=C\C/C=C\CCCCCCCCN(CCCCCC(=O)OCC(CCCCCCCC)CCCCCCCCCC)CCOC(=O)NCCCN(C)C (stereo not shown) [Lipid 81, 2-octyldodecyl 2-methyl-11-((9Z,12Z)-octadeca-9,12-dien-1-yl)-7-oxo-8-oxa-2,6,11-triazaheptadecan-17-oate] | 121 | 6.71E+04 | 1.15E+04 | 107 | 1.56E+03 | – | – | – | –
CCCCCCCCCCCOC(=O)CCCCCN(CCCCCCCC(=O)OC(CCCCCCCC)CCCCCCCC)CCOC(=O)NCCN1CCN(C)CC1 [Lipid 160, heptadecan-9-yl 8-((2-(((2-(4-methylpiperazin-1-yl)ethyl)carbamoyl)oxy)ethyl)(6-oxo-6-(undecyloxy)hexyl)amino)octanoate] | 94 | 6.38E+05 | 4.44E+05 | 93 | 1.94E+04 | – | – | – | –
CCCCCCOC(=O)CCCCCCCCCCN(CCCCCCCCCCC(=O)OCCCCCC)CCOC(=O)NCCN1CCOCC1 [Lipid 139, dihexyl 11,11′-((2-(((2-morpholinoethyl)carbamoyl)oxy)ethyl)azanediyl)diundecanoate] | 16 | 4.85E+01 | 3.48E+06 | 8 | 1.64E+02 | – | – | – | –
CCCCCCCOC(=O)CCCCCCCCCN(CCCCCCCCCC(=O)OCCCCCCC)CCOC(=O)NCCN1CCCCC1 [Lipid 118, diheptyl 10,10′-((2-(((2-(piperidin-1-yl)ethyl)carbamoyl)oxy)ethyl)azanediyl)bis(decanoate)] | 19 | 1.43E+03 | 7.90E+06 | 8 | 1.42E+04 | – | – | – | –
CCCCCCCCCC(=O)OCCCCCCCN(CCCCCCCOC(=O)CCCCCCCCC)CCOC(=O)NCc1ncc[nH]1 [Lipid 176] | 88 | 6.28E+03 | 1.31E+07 | 93 | 4.83E+04 | – | – | – | –
CCCCCCCCCCCOC(=O)CCCCCN(CCCCCC(=O)OCCCCCCCCCCC)CCOC(=O)NCCN1CCN(C)CC1 [Lipid 156, diundecyl 6,6′-((2-(((2-(4-methylpiperazin-1-yl)ethyl)carbamoyl)oxy)ethyl)azanediyl)dihexanoate] | 84 | 2.86E+04 | 4.92E+04 | 93 | 1.67E+03 | – | – | – | –
